According to paper PMC3870587 (Biochemistry, 2013):
Several values for one entry are separate records, joined by “and”; a condition that tells them apart may be missing. Equal entries are not always repeated.

Tests used:
MTAP = settings: steady-state kinetic analysis; ref [7],[12]; cited from earlier work
human MTAP (apo) [1] = molecular target: T1, human MTAP (apo) (Homo sapiens, UniProt Q13126); assay: Isothermal titration calorimetry of ligands binding to apo MTAP in Hepes buffer; settings: for ΔΔG relative to MTA; contribution of the 9-deazaadenine (protonated N7): binding to apo MTAP, ΔG of MTA subtracted
T1 sequence (Q13126 1-283): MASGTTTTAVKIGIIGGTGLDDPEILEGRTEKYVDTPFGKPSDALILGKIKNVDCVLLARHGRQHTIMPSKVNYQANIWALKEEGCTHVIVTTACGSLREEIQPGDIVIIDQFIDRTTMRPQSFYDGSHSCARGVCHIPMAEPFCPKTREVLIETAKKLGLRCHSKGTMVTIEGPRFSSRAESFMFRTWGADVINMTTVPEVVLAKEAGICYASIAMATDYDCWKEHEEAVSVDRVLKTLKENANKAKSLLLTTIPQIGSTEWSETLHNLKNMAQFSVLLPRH

human MTAP (apo) [2] = molecular target: T1, human MTAP (apo); assay: Isothermal titration calorimetry of ligands binding to apo MTAP in Tris buffer; settings: for ΔHTris [n] / −TΔSTris: apo MTAP; for ΔHTris [n]: Tris buffer pH 7.4; for −TΔSTris: Tris; for ΔHcorrection share of total binding free energy: binding to apo MTAP; for ΔHcorrection / −TΔScorrection: without protonation/deprotonation effects
[3] = system: human head and neck cancer; settings: immunodeficient mice; ref [4],[5]; cited from earlier work
human lung cancer = settings: immunodeficient mice; ref [4],[5]; cited from earlier work
MTAP:phosphate complex [4] = settings: read-out: dissociation constant (Kd); binding to MTAP:phosphate, ternary complex; ref [9],[10],[11]; cited from earlier work
MTAP:phosphate complex [5] = assay: Binding of TS analogues to the MTAP:phosphate complex; design: species or system human; settings: from 40 nM to 90 pM
[6] = apo MTAP, Hepes, all three sites or first-listed set of sites
[7] = apo MTAP, Hepes, second-listed set of sites
[8] = all three sites or first two sites
[9] = all three sites [3] or first two sites [2]

| NumberProton (protons released from the binding of ligand to MTAP) (human MTAP (apo) [2]; [8]) | ΔHTris - ΔHHepes (human MTAP (apo) [2]; [8]) [kcal/mol] | ΔHTris [n] (human MTAP (apo) [2]; [9]) | −TΔSTris (human MTAP (apo) [2]; [8]) [kcal/mol] | ΔHcorrection (human MTAP (apo) [2]; [8]) | −TΔScorrection (human MTAP (apo) [2]; [8]) [kcal/mol] | Molecule | ΔG (human MTAP (apo) [1]; [6]) | ΔHHepes (human MTAP (apo) [1]; [6]) [kcal/mol] | −TΔSHepes (human MTAP (apo) [1]; [6]) | ΔG (human MTAP (apo) [1]; [7]) [kcal/mol] | ΔHHepes (human MTAP (apo) [1]; [7]) [kcal/mol] | −TΔSHepes (human MTAP (apo) [1]; [7]) [kcal/mol] | ΔHcorrection share of total binding free energy (human MTAP (apo) [2]) [%] | Kd (MTAP:phosphate complex [4]) [nM] | ΔΔG relative to MTA; contribution of the 9-deazaadenine (protonated N7) (human MTAP (apo) [1]) [kcal/mol] | other results |
| --- | --- | --- | --- | --- | --- | --- | --- | --- | --- | --- | --- | --- | --- | --- | --- | --- |
|  |  |  |  |  |  | 5'-methylthioadenosine [MTA, reference compound] | -11.1 kcal/mol and -11.1 ± 0.4 kcal/mol | -1.0 ± 0.3 | -10.1 kcal/mol and -10.1 ± 0.5 kcal/mol | -8.4 ± 0.1 | -6.1 ± 0.2 | -2.3 ± 0.2 |  |  |  | Km (MTAP): 1.7 µM |
| 0.2 and 0.2 ± 0.1 | -1.2 ± 0.8 | -11.4 ± 0.2 kcal/mol | 1.3 ± 0.3 | -9.2 kcal/mol and -9.2 ± 0.9 kcal/mol | -0.9 ± 0.9 | CSC[C@H]1CN(Cc2c[nH]c3c(N)ncnc23)C[C@@H]1O [MT-DADMe-ImmA] | -10.1 kcal/mol and -10.1 ± 0.2 kcal/mol | -10.2 ± 0.8 | 0.1 ± 0.8 kcal/mol | -9.5 ± 0.1 | -3 ± 1 | -7 ± 1 | 91 | 0.09 | -1.7 | ΔHTris [n] (human MTAP (apo) [2]; third site [1]): -10.3 ± 0.4 kcal/mol; −TΔSTris (human MTAP (apo) [2]; third site): 0.8 ± 0.4 kcal/mol; NumberProton (protons released from the binding of ligand to MTAP) (human MTAP (apo) [2]; third site): 1.1 and 1.1 ± 0.2; ΔHTris - ΔHHepes (human MTAP (apo) [2]; third site): -7 ± 1 kcal/mol; ΔHcorrection (human MTAP (apo) [2]; third site): 2 ± 1 kcal/mol; −TΔScorrection (human MTAP (apo) [2]; third site): -12 ± 1 kcal/mol; effect on human head and neck cancer [3]: causes remission of human head and neck cancer; effect on human lung cancer (human lung cancer): suppresses the growth and metastases of human lung cancer; decrease of Kd, apo MTAP to ternary complex with phosphate (MTAP:phosphate complex [5]): 440 fold |
|  |  |  |  |  |  | Nc1ncnc2c(CN3CC(CSc4ccc(Cl)cc4)[C@H](O)C3)c[nH]c12 (stereo partly shown) [pClPhT-DADMe-ImmA] |  |  |  |  |  |  |  | 0.01 |  |  |
| −0.91 ± 0.05 | 5.9 ± 0.3 | −2.77 ± 0.04 [3] kcal/mol | -3.74 ± 0.07 | -13.1 kcal/mol and -13.1 ± 0.4 kcal/mol | 6.6 ± 0.4 | O=P(O)(O)O [phosphate, potassium phosphate] | -6.51 kcal/mol and -6.51 ± 0.06 kcal/mol | -8.7 ± 0.3 | 2.2 ± 0.3 kcal/mol |  |  |  |  |  |  | protons absorbed from the buffer on binding to apo MTAP (human MTAP (apo) [2]; pH 7.4): 0.91 ± 0.05; Kd (human MTAP (apo) [1]; apo MTAP, Hepes, all three sites): 17000 nM |

| Molecule | NumberProton (protons released from the binding of ligand to MTAP) (human MTAP (apo) [2]; [8]) | ΔHTris - ΔHHepes (human MTAP (apo) [2]; [8]) [kcal/mol] | ΔHTris [n] (human MTAP (apo) [2]; [9]) | −TΔSTris (human MTAP (apo) [2]; [8]) [kcal/mol] | ΔHcorrection (human MTAP (apo) [2]; [8]) | −TΔScorrection (human MTAP (apo) [2]; [8]) [kcal/mol] | ΔG (human MTAP (apo) [1]; [6]) | ΔHHepes (human MTAP (apo) [1]; [6]) [kcal/mol] | −TΔSHepes (human MTAP (apo) [1]; [6]) | ΔG (human MTAP (apo) [1]; [7]) [kcal/mol] | ΔHHepes (human MTAP (apo) [1]; [7]) [kcal/mol] | −TΔSHepes (human MTAP (apo) [1]; [7]) [kcal/mol] | ΔHcorrection share of total binding free energy (human MTAP (apo) [2]) [%] | Kd (MTAP:phosphate complex [4]) [nM] | ΔΔG relative to MTA; contribution of the 9-deazaadenine (protonated N7) (human MTAP (apo) [1]) [kcal/mol] | other results |
| --- | --- | --- | --- | --- | --- | --- | --- | --- | --- | --- | --- | --- | --- | --- | --- | --- |
| CSCC1NC(c2c[nH]c3c(N)ncnc23)[C@@H](O)[C@H]1O (stereo partly shown) [MT-ImmA] | 0.5 and 0.50 ± 0.01 | -3.23 ± 0.09 | −12.82 ± 0.05 [3] kcal/mol | 3.1 ± 0.1 | -7.15 kcal/mol and -7.15 ± 0.09 kcal/mol | -2.6 ± 0.1 | -9.7 ± 0.1 kcal/mol | -9.59 ± 0.08 | -0.1 ± 0.1 kcal/mol |  |  |  | 74 | 1 | -1.3 |  |
